Assay [1] addresses T1, Orexin/Hypocretin receptor type 1 (Homo sapiens, UniProt O43613).
T1 sequence (O43613 whole entry): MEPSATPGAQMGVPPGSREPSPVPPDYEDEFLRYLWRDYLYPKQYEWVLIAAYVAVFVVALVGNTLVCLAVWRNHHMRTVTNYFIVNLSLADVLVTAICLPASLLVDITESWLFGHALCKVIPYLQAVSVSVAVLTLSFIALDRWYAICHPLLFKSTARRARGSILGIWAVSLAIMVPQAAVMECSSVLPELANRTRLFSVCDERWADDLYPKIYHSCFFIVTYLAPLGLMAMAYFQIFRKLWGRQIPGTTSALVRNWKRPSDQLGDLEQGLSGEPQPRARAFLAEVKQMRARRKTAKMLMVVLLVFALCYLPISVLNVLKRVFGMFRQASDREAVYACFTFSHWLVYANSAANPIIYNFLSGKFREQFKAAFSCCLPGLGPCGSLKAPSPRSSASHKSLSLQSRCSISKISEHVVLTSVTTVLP
Briefly: Effective agonist concentration to human orexin receptor type 1 determined using the Xlfit program. The assay is classed as functional.

The target in assay [2] is T2, Orexin receptor type 2 (Homo sapiens, UniProt O43614).
T2 sequence (O43614 whole entry): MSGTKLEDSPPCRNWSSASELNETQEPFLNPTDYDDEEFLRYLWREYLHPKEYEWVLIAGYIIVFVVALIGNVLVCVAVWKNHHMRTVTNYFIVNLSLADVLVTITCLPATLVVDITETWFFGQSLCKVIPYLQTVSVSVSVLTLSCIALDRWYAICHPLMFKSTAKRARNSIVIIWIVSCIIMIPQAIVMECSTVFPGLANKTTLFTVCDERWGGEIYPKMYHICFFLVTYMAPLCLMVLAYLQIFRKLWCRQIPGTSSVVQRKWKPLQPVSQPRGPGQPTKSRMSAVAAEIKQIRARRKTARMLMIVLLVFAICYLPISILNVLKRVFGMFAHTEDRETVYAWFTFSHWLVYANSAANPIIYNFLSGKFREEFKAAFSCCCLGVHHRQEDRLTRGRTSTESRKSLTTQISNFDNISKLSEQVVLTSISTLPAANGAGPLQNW
The assay is described as follows: Effective agonist concentration to the human Orexin receptor type 2 was determined using the Xlfit program. The format is functional.

Residues, ends and D or L forms follow the SMILES beside them.

Turning to `CSCC[C@H](NC(=O)[C@@H](NC(=O)[C@H](CC(C)C)NC(=O)[C@@H]1CCCN1C(=O)CNC(=O)[C@H](C)NC(=O)[C@H](C)NC(=O)[C@H](Cc1cnc[nH]1)NC(=O)[C@H](CC(N)=O)NC(=O)CNC(=O)[C@H](CO)NC(=O)[C@H](C)NC(=O)[C@H](CCC(N)=O)NC(=O)[C@H](CC(C)C)NC(=O)[C@H](CC(C)C)NC(=O)[C@H](CCCNC(=N)N)NC(=O)[C@H](CCC(N)=O)NC(=O)[C@H](CC(C)C)NC(=O)[C@H](CCCNC(=N)N)NC(=O)CNC(=O)[C@H](CCC(N)=O)NC(=O)[C@H](CC(C)C)NC(=O)CN)[C@@H](C)O)C(=O)O` (H-GLQGRLQRLLQASGNHAAGPLTM-OH), the EC50 in assay [1] and in assay [2] was greater than 1000 µM throughout.
For the compound `CC(C)C[C@H](NC(=O)CNC(=O)[C@@H]1CCCN1C(=O)[C@@H]1CCCN1C(=O)CNC(=O)[C@H](CO)NC(=O)[C@@H](N)CCCN=C(N)N)C(=O)N[C@@H](CCC(N)=O)C(=O)NCC(=O)N[C@@H](CCCN=C(N)N)C(=O)N[C@@H](CC(C)C)C(=O)N[C@@H](CCC(N)=O)C(=O)N[C@@H](CCCN=C(N)N)C(=O)O` (H-RSGPPGLQGRLQR-OH), the EC50 in assay [1] and in assay [2] was greater than 1000 µM each time.
Take `CC(C)C[C@H](NC(=O)[C@@H]1CCCN1C(=O)[C@@H]1CCC(=O)N1)C(=O)N1CCC[C@H]1C(=O)N[C@@H](CC(=O)O)C(=O)N[C@@H](CS)C(=O)N[C@@H](CS)C(=O)N[C@@H](CCCN=C(N)N)C(=O)N[C@@H](CCC(N)=O)C(=O)N[C@@H](CCCCN)C(=O)N[C@H](C(=O)O)[C@@H](C)O`: the EC50 in assay [1] and in assay [2] was greater than 1000 µM each time.
Consider `CC[C@H](C)[C@H](NC(=O)CNC(=O)[C@H](C)NC(=O)[C@H](C)NC(=O)[C@H](Cc1cnc[nH]1)NC(=O)[C@H](CC(N)=O)NC(=O)CNC(=O)[C@H](CO)NC(=O)[C@H](C)NC(=O)[C@H](CCC(N)=O)NC(=O)[C@H](CC(C)C)NC(=O)[C@H](CC(C)C)NC(=O)[C@H](CCCNC(=N)N)NC(=O)[C@H](CCC(N)=O)NC(=O)[C@H](CC(C)C)NC(=O)[C@H](CCCNC(=N)N)NC(=O)CNC(=O)[C@H](CCC(N)=O)NC(=O)[C@H](CC(C)C)NC(=O)CN)C(=O)N[C@@H](C)C(=O)N[C@H](C(=O)N[C@@H](CCSC)C(=O)O)[C@@H](C)O` (H-GLQGRLQRLLQASGNHAAGIATM-OH), for which the EC50 (usually the concentration at which the effect is half-maximal) in assay [1] was greater than 1000 µM; in assay [2], 15.6 µM.
For `CC[C@H](C)[C@H](NC(=O)CNC(=O)[C@H](C)NC(=O)[C@H](C)NC(=O)[C@H](Cc1cnc[nH]1)NC(=O)[C@H](CC(N)=O)NC(=O)CNC(=O)[C@H](C)NC(=O)CNC(=O)[C@H](Cc1cnc[nH]1)NC(=O)[C@H](CC(C)C)NC(=O)[C@H](CC(C)C)NC(=O)[C@H](CCC(=O)O)NC(=O)[C@H](Cc1ccc(O)cc1)NC(=O)[C@H](CC(C)C)NC(=O)[C@H](CCCNC(=N)N)NC(=O)[C@H](CSSC[C@H](NC(=O)[C@@H](N)CO)C(=O)N[C@@H](CCCNC(=N)N)C(=O)N[C@@H](CC(C)C)C(=O)N[C@@H](Cc1ccc(O)cc1)C(=O)N[C@@H](CCC(=O)O)C(=O)N[C@@H](CC(C)C)C(=O)N[C@@H](CC(C)C)C(=O)N[C@@H](Cc1cnc[nH]1)C(=O)NCC(=O)N[C@@H](C)C(=O)NCC(=O)N[C@@H](CC(N)=O)C(=O)N[C@@H](Cc1cnc[nH]1)C(=O)N[C@@H](C)C(=O)N[C@@H](C)C(=O)NCC(=O)N[C@H](C(=O)N[C@@H](CC(C)C)C(=O)N[C@H](C(=O)N[C@@H](CC(C)C)C(=O)O)[C@@H](C)O)[C@@H](C)CC)NC(=O)[C@@H](N)CO)C(=O)N[C@@H](CC(C)C)C(=O)N[C@H](C(=O)N[C@@H](CC(C)C)C(=O)O)[C@@H](C)O`, the EC50 in assay [1] was 0.69 µM; in assay [2] it was 0.24 µM.
Take `CC[C@H](C)[C@H](NC(=O)CNC(=O)[C@H](C)NC(=O)[C@H](C)NC(=O)[C@H](Cc1cnc[nH]1)NC(=O)[C@H](CC(N)=O)NC(=O)CNC(=O)[C@H](C)NC(=O)CNC(=O)[C@H](Cc1cnc[nH]1)NC(=O)[C@H](CC(C)C)NC(=O)[C@H](CC(C)C)NC(=O)[C@H](CCC(=O)O)NC(=O)[C@H](Cc1ccc(O)cc1)NC(=O)[C@H](CC(C)C)NC(=O)[C@H](CCCNC(=N)N)NC(=O)[C@H](CS)NC(=O)[C@H](CO)NC(=O)[C@H](CS)NC(=O)[C@@H](NC(=O)[C@H](CCCCN)NC(=O)[C@H](CCC(N)=O)NC(=O)[C@@H](N)CCCNC(=N)N)[C@@H](C)O)C(=O)N[C@@H](CC(C)C)C(=O)N[C@H](C(=O)N[C@@H](CC(C)C)C(=O)O)[C@@H](C)O` (H-RQKTCSCRLYELLHGAGNHAAGILTL-OH): the results for the EC50 in assay [1] and in assay [2] were 0.68 µM and 0.29 µM, respectively.
On to `CC[C@H](C)[C@H](NC(=O)CNC(=O)[C@H](C)NC(=O)[C@H](C)NC(=O)[C@H](Cc1cnc[nH]1)NC(=O)[C@H](CC(N)=O)NC(=O)CNC(=O)[C@H](CO)NC(=O)[C@H](C)NC(=O)[C@H](C)NC(=O)[C@H](CC(C)C)NC(=O)[C@H](CC(C)C)NC(=O)[C@H](CCCNC(=N)N)NC(=O)[C@H](CCC(N)=O)NC(=O)[C@H](CC(C)C)NC(=O)[C@H](CCCNC(=N)N)NC(=O)CNC(=O)[C@H](CCC(N)=O)NC(=O)[C@H](CC(C)C)NC(=O)CN)C(=O)N[C@@H](CC(C)C)C(=O)N[C@H](C(=O)N[C@@H](CCSC)C(=O)O)[C@@H](C)O` (H-GLQGRLQRLLAASGNHAAGILTM-OH), for which the EC50 in assay [1] was found to be 1.64 µM; in assay [2], 0.19 µM.
In the case of `CC[C@H](C)[C@H](NC(=O)CNC(=O)[C@H](C)NC(=O)[C@H](C)NC(=O)[C@H](Cc1c[nH]cn1)NC(=O)[C@H](CC(N)=O)NC(=O)CNC(=O)[C@H](C)N)C(=O)N[C@@H](CC(C)C)C(=O)N[C@H](C(=O)N[C@@H](CC(C)C)C(=O)O)[C@@H](C)O` (H-AGNHAAGILTL-OH), the EC50 in assay [1] and in assay [2] was greater than 1000 µM throughout.
On to `CC[C@H](C)[C@H](NC(=O)CNC(=O)[C@@H]1CCCN1C(=O)[C@H](C)NC(=O)[C@H](Cc1cnc[nH]1)NC(=O)[C@H](CC(N)=O)NC(=O)CNC(=O)[C@H](CO)NC(=O)[C@H](C)NC(=O)[C@H](CCC(N)=O)NC(=O)[C@H](CC(C)C)NC(=O)[C@H](CC(C)C)NC(=O)[C@H](CCCNC(=N)N)NC(=O)[C@H](CCC(N)=O)NC(=O)[C@H](CC(C)C)NC(=O)[C@H](CCCNC(=N)N)NC(=O)CNC(=O)[C@H](CCC(N)=O)NC(=O)[C@H](CC(C)C)NC(=O)CN)C(=O)N[C@@H](CC(C)C)C(=O)N[C@H](C(=O)N[C@@H](CCSC)C(=O)O)[C@@H](C)O` (H-GLQGRLQRLLQASGNHAPGILTM-OH), for which the figures for the EC50 in assay [1] and in assay [2] were greater than 1000 µM and 3.6 µM, respectively.
The matching figures for `CC[C@H](C)[C@H](NC(=O)CNC(=O)[C@H](C)NC(=O)[C@H](C)NC(=O)[C@H](Cc1cnc[nH]1)NC(=O)[C@H](CC(N)=O)NC(=O)CNC(=O)[C@H](CO)NC(=O)[C@H](C)NC(=O)[C@H](CCC(N)=O)NC(=O)[C@H](CC(C)C)NC(=O)[C@H](CC(C)C)NC(=O)[C@H](CCCNC(=N)N)NC(=O)[C@H](CCC(N)=O)NC(=O)[C@H](CC(C)C)NC(=O)[C@@H](N)CCCNC(=N)N)C(=O)N[C@@H](CC(C)C)C(=O)N[C@H](C(=O)N[C@@H](CCSC)C(=O)O)[C@@H](C)O` (H-RLQRLLQASGNHAAGILTM-OH): greater than 1000 µM and 0.57 µM.
Turning to `CC[C@H](C)[C@H](NC(=O)CNC(=O)[C@H](C)NC(=O)[C@H](C)NC(=O)[C@H](Cc1cnc[nH]1)NC(=O)[C@@H](N)CC(N)=O)C(=O)N[C@@H](CC(C)C)C(=O)N[C@H](C(=O)N[C@@H](CC(C)C)C(=O)O)[C@@H](C)O` (H-NHAAGILTL-OH), the EC50 in assay [1] and in assay [2] was greater than 1000 µM each time.
With `CC[C@H](C)[C@H](NC(=O)CNC(=O)[C@H](C)NC(=O)[C@H](C)NC(=O)[C@H](Cc1cnc[nH]1)NC(=O)[C@H](CC(N)=O)NC(=O)CNC(=O)[C@H](CO)NC(=O)[C@H](C)NC(=O)[C@H](CCC(N)=O)NC(=O)[C@H](C)NC(=O)[C@H](CC(C)C)NC(=O)[C@H](CCCNC(=N)N)NC(=O)[C@H](CCC(N)=O)NC(=O)[C@H](CC(C)C)NC(=O)[C@H](CCCNC(=N)N)NC(=O)CNC(=O)[C@H](CCC(N)=O)NC(=O)[C@H](CC(C)C)NC(=O)CN)C(=O)N[C@@H](CC(C)C)C(=O)N[C@H](C(=O)N[C@@H](CCSC)C(=O)O)[C@@H](C)O` (H-GLQGRLQRLAQASGNHAAGILTM-OH), the EC50 was greater than 1000 µM in assay [1] and 2.33 µM in assay [2].
For the compound `CC[C@H](C)[C@H](NC(=O)CNC(=O)[C@H](C)NC(=O)[C@H](C)NC(=O)[C@H](Cc1cnc[nH]1)NC(=O)[C@H](CC(N)=O)NC(=O)CNC(=O)[C@H](CO)NC(=O)[C@H](C)NC(=O)[C@H](CCC(N)=O)NC(=O)[C@H](CC(C)C)NC(=O)[C@H](CC(C)C)NC(=O)[C@H](CCCNC(=N)N)NC(=O)[C@H](CCC(N)=O)NC(=O)[C@H](CC(C)C)NC(=O)[C@H](CCCNC(=N)N)NC(=O)CNC(=O)[C@H](CCC(N)=O)NC(=O)[C@H](CC(C)C)NC(=O)[C@H](C)N)C(=O)N[C@@H](CC(C)C)C(=O)N[C@H](C(=O)N[C@@H](CCSC)C(=O)O)[C@@H](C)O` (H-ALQGRLQRLLQASGNHAAGILTM-OH), the EC50 in assay [1] was determined as 3.16 µM; in assay [2], 0.57 µM.

These data come from ChEMBL document CHEMBL1148480, “Structure-activity studies of orexin a and orexin B at the human orexin 1 and orexin 2 receptors led to orexin 2 receptor selective and orexin 1 receptor preferring ligands” (J Med Chem, 2004).
